Test results reported in US6911435B1 (Can-Fite Biopharma Ltd., priority 1997, dated 2005).

What was measured:
white blood cells [1] = assay: Example 5 in vivo: white blood cell count and percentage of granulocytes; parameters: species or system C57BL6/J mice
Method: 50 C57BL6/J mice were divided into 5 groups of 10 mice each, which were treated by intraperitoneal injection with one of the following treatments: • 1. Control group: 6 days of treatment by daily injection of 1 ml saline. • 2. […] Chemotherapy group: daily injection of 1 ml saline for 5 consecutive days. On day 6 the mice were injected intraperitoneally with cyclophosphamide. • 5. […] On day 6 the mice were injected intraperitoneally with cyclophosphamide. Results

bone marrow cells [2] = assay: Bone marrow cell proliferation in vitro (adenosine dose response, adenosine receptor antagonists); format: cell-based, C57BL/6J mice; details: FIG. 3
Method: (§1) During the last 6 hours of incubation, each well was pulsed with 1 μCi[^3H]-Thymidine. The cells were harvested and the [^3H]-Thymidine uptake was determined in an LKB liquid scintillation counter (LKB, Piscataway, N.J., USA).

blood cells = assay: Example 3 in vivo: blood cell parameters after adenosine and/or chemotherapy; details: for white blood cell count versus control: Example 3, in words
Method: 40 C57BL6/J were divided into 4 groups, each of which was treated (by intraperitoneal injection) according to one of the following protocols: • 1. Control group: 6 days of treatment by daily injection of 1 ml saline. • 2. Chemotherapy group: daily injection of 1 ml saline for 5 consecutive days. On day 6 the mice were injected intraperitoneally with cyclophosphamide. • 3. […] On day 6 the mice were injected intraperitoneally with 1 ml saline. • 4.
The following parameters were evaluated for each group: • i. Red blood cell (RBC) count. • ii. Hemoglobin (HGB) level. • iii. White blood cell count. • iv. Proportion of the three major groups of white blood cells: Lymphocytes (LYM), Monocytes (MID) and Granulocytes (GRAN). Results

B-16-F10 melanoma cells = assay: Example 4 in vivo: B-16-F10 melanoma lung tumor foci; parameters: species or system C57BL6/J mice; details: for No. of foci (melanoma tumor foci in the lung): 18 days, adenosine 1 ml 5 mM daily i.p.
IL-12 = IL-12 production by peripheral blood mononuclear cells; format: cell-based, human; details: 4 μM adenosine
Method: Mononuclear cells (MNC) were fractionated from heparinized blood of 10 healthy volunteers using Ficoll-Hypaque gradient. […] At the end of the incubation period the supernatant was collected, centrifuged and filtered through 0.22μ sterile filter and kept at −70° C. until assayed. The level of IL-12 in the supernatants was analyzed using a commercial kit of R&D System.

bone marrow cells [3] = assay: Example 2: proliferation capacity of bone marrow from treated mice ([3H]-Thymidine); format: in vivo, C57BL6/J mice; details: after 24 hours
Method: as §1
(§2) On day 6 the mice were injected intraperitoneally with 1 ml saline. • 4. chemotherapy group: daily injection of 1 ml saline for 5 consecutive days. On day 6 the mice were injected intraperitoneally with cyclophosphamide.
Five mice of each group were sacrificed […] and 96 hrs following the treatments and two parameters were evaluated: • 1. complete blood cell count. • 2. Proliferation capacity of bone marrow: bone marrow was aspirated from the femur and pooled for each tested group. The cells were separated, counted and the proliferative capacity was evaluated by the [^3H]-Thymidine incorporation assay as described above.

[4] = tested on: normal cells (bone marrow cells, fibroblasts, L-8 myoblast); assay: [3H]-Thymidine incorporation assay, normal cells; format: cell-based, mice, rat; details: adenosine 4 μM, FIG. 2
Method: As a control for tumor proliferating cells, two normal proliferating cell types were used i.e., bone marrow cells derived from the femur of C57BL/6J mice; fibroblasts derived from primary cultures of newborn rat skeletal muscle cells. The cells were prepared as previously, (Djaldetti, M., Sredni, B., Zigelman, R., Verber, M., and Fishman, P. Muscle cells produce a low molecular weight factor with anti-cancer activity. Clin. Exp. Matastasis, 14:189-196, 1996). Also used was the L-8 myoblast rat cell line which was purchased from the ATCC.
as §1

NK cells = assay: NK activity of splenocytes from adenosine treated mice, Yac targets; format: in vivo, ICR mice; details: 5 consecutive days 10 μM adenosine; two effector:target ratios; FIG. 8
white blood cells [5] = assay: Example 2 in vivo: white blood cell count after adenosine and/or cyclophosphamide; parameters: species or system C57BL6/J mice; details: i.p.
Method: as §2
[…] Proliferation capacity of bone marrow: bone marrow was aspirated from the femur and pooled for each tested group. The cells were separated, counted and the proliferative capacity was evaluated by the [^3H]-Thymidine incorporation assay as described above.

K562 cells = assay: K562 cell proliferation with adenosine and theophylline; format: cell-based, human
Method: as §1
Culture conditions were identical to those described above.

[6] = tested on: human peripheral blood NK cells; assay: NK activity of peripheral blood cells, 51Cr-release assay, K562 targets; format: cell-based; details: 4 μM adenosine, 18 hours preincubation
Method: K562 cells were used as the targets (T) and were labeled with 100 μCi of Na2[^51Cr]O4 at 37° for 1 h. After extensive washing to remove the excess Cr, cells (1×10^4) were resuspended and mixed with the effector cells at the E:T ratio of […] in a volume of 200 μl using triplicate assays. After 4 h of incubation at 37° C. in 5% CO2, plates were centrifuged, and the supernatants were counted in a gamma counter (LKB). […] Spontaneous release was below 8% of the maximal release throughout this experiment.

[7] = tested on: leukemia, lymphoma and the solid tumor cell lines; assay: [3H]-Thymidine incorporation assay, tumor cell lines; format: cell-based, human, murine; details: adenosine 4 μM, FIG. 2
Description: Tumor cell lines from human (K562 myeloid leukemia, Tib-180 erythroleukemia, LNCaP prostate carcinoma and MDA-MB468 breast adenocarcinoma), and murine (Yac lymphoma, B-16 melanoma) were used and were purchased from the American Type Tissue Culture Collection, Rockville. Nb2 11c rat lymphoma cells (Pines et al.^(19), were also used. The cells were routinely maintained in RPM medium containing 10% fetal calf serum. Twice a week the cells were transferred to a freshly prepared medium.
as §1

Nb2-11C lymphoma cells = assay: Cell count assay, proliferation of Nb2-11C lymphoma cells; format: cell-based, rat; details: adenosine 1-20 μM, 48 hours
Method: The Nb2-11C cells were synchronized in the GO/Gl phase prior to cultivation with the CM by transferring the cells to horse serum (Biological Industries, Beit Haemek, Israel) supplemented medium for overnight incubation. […] Cell proliferation was initiated by the addition of Human Growth Hormone (Biotechnology General, Rehovot, Israel) to a final concentration of 2 ng/ml. The cultures were incubated at 37° C. at 5% CO2 and counted in Coulter Counter 48 hours later.

[8] = 5 μM adenosine group, daily i.p. 6 days
[9] = adenosine where given 10 μM, cyclophosphamide where given on day 6

| Structure (SMILES) | GRAN (white blood cells [1]; [9]) | WBC (white blood cells [1]; [9]) | white blood cell count versus control (blood cells) | % GRAN (granulocytes, % out of the number of white blood cells) (blood cells; mean±S.E.) | % LYM (lymphocytes, % out of the number of white blood cells) (blood cells; mean±S.E.) | % MID (monocytes, % out of the number of white blood cells) (blood cells; mean±S.E.) | No. of foci (melanoma tumor foci in the lung) (B-16-F10 melanoma cells) | Bone Marrow Cell Proliferation (bone marrow cells [3]) | WBC count (white blood cells [5]; 24 hours after treatment) | WBC count (white blood cells [5]; 96 hours after treatment) | also measured |
| --- | --- | --- | --- | --- | --- | --- | --- | --- | --- | --- | --- |
| Nc1ncnc2c1ncn2[C@@H]1O[C@H](CO)[C@@H](O)[C@H]1O [adenosine] | 10.76% | 7.56 count × 10^3/I | boosted to levels above control | 21.03 ± 2.75% | 65.57 ± 3.35% | 13.4 ± 0.70% | 6.11 ± 2.74 | 1480.0 ± 68.5 CPM | 9.37 ± 0.26 × 10^6/ml | 6.8 ± 0.73 × 10^6/ml | GRAN (white blood cells [1]; [8]): 9.00%; WBC (white blood cells [1]; [8]): 9.50 count × 10^3/I; concentration of peak stimulatory activity on bone marrow cell proliferation (bone marrow cells [2]): about 10 μM; HGB (hemoglobin count) (blood cells; mouse, in vivo): 14.03 ± 0.20 gram/100 ml; tumor load (tumor foci in the lungs) (B-16-F10 melanoma cells; oral 0.5 ml of 10 μM adenosine, about 54 μg/kg, with chemotherapeutic drug, FIG. 6): synergized with the chemotherapeutic drug to reduce the tumor load; production of IL-12 in the presence of SAC mitogen (IL-12; 18 hours, FIG. 7): stimulated the production of IL-12; stimulation of IL-12 production without mitogen (IL-12; no mitogen): 19%; proliferation of the three tested normal cells [4]: stimulated the proliferation; NK activity of splenocytes, lysis of Yac target cells (NK cells): more potent in lysing the Yac target cells; K562 tumor cell proliferation (K562 cells; adenosine 4 μM, FIG. 4): inhibited tumor cell proliferation; stimulation of NK activity [6]: 32%; proliferation of leukemia, lymphoma and solid tumor cell lines [7]: induced proliferation inhibition; growth of Nb2-11c rat lymphoma cells (cell count) (Nb2-11C lymphoma cells): markedly inhibited |
| Cn1c(=O)c2[nH]cnc2n(C)c1=O [theophylline, Theophylline] |  |  |  |  |  |  |  |  |  |  | effect on the inhibitory effect of adenosine on tumor cell proliferation (K562 cells; theophylline 0.1 μM with 4 μM adenosine, K562): this inhibitory effect was neutralized |
| O=P1(N(CCCl)CCCl)NCCCO1 (centres unmarked) [cyclophosphamide] | 7.70% | 5.00 count × 10^3/I | caused a reduction in the amount of white blood cells | 10.28 ± 1.59% | 81.94 ± 2.49% | 7.78 ± 0.92% | 4.16 ± 1.42 | 434.5 ± 52.2 CPM | 3.8 ± 0.18 × 10^6/ml | 3.62 ± 0.17 × 10^6/ml | HGB (hemoglobin count) (blood cells; mean±S.E.): 14.88 ± 8.32 gram/100 ml |
